Experimental data published in patent US20170209403A1, “METHOD FOR REGULATING ALDEHYDE DEHYDROGENASE 1” (National Cheng Kung University, priority 2016, published 2017).

Key:
[1] = system: A2780-High and CP70-High cells; test: Transwell migration assay; assay type: cell-based, human; conditions: 10 μM ATRA for 28 days
Method: (§1) Cells (1×10^5) were seeded on Transwell filters with a pore size of 8 μm (Corning Costar) and were allowed to migrate toward medium containing 10% FBS. After 8 h, the cells on the upper surface of the Transwell membrane were removed with a cotton swab, and the migrated cells (on the underside of the Transwell) were fixed and stained with methanol and Giemsa staining dye (Merck, Darmstadt, Germany). The invasion assay was conducted in the same manner as the migration assay, except that Matrigel (BD Biosciences) was used, the incubation time differed (24 h) and the number of cells added to the upper chamber was 2×10^5 cells. Cell migration and invasion were quantified by counting the migrated cells in six random fields under a light microscope.

[2] = system: ALDH1, FoxM1 and Notch-1 expression in ES2 cells; test: Western blotting of ALDH1, FoxM1 and Notch1; assay type: cell-based, human; conditions: ES2-High cells; ATRA
[3] = system: ALDH1, FoxM1, Notch1, Oct-4 and Nanog expression in A2780 and CP70 cells; test: Western blotting of ALDH1, FoxM1, Notch1 and CSC markers; assay type: cell-based, human; conditions: A2780-High and CP70-High cells; 10 μM ATRA for 28 days
[4] = system: ALDH1; test: Immunohistochemical staining for ALDH1 in tumour tissue sections
[5] = system: CP70-High tumour; test: Antitumour efficacy of ATRA in mouse xenografts; assay type: in vivo, NOD/SCID mice; conditions: 1×10^6 cells s.c.; ATRA 0.05 or 0.1 mg into the peritoneal cavity three times per week; at 22 days after tumour cell inoculation
Method: (§2) Cell suspensions of 1×10^6 A2780-High or CP70-High cells were inoculated subcutaneously into mice.
(§3) All animal studies adhered to protocols approved by the Institutional Animal Care and Use Committee of National Cheng Kung University Medical Centre. The mouse xenograft model was prepared as previously reported (Molthoff, C. F. et al. (1991) Int. J. Cancer, 47, 72-79). Briefly, cells were implanted in 50% Matrigel (BD Biosciences, San Jose, Calif.) and injected subcutaneously into the left flanks of 4- to 6-week-old female NOD/SCID (NOD.CB17-PRKDC (SCID)) mice. We observed mice for tumour formation every other day after cell inoculation and measured tumour size when it became measurable. Tumour size was measured using Vernier callipers by external measurement of the length and width, and the tumour volume was computed from the formula for an ellipsoid body […]. When the tumours reached ˜2000 mm^3 at approximately 28 days, the mice were sacrificed. […] All tumours were excised, fixed in 10% neutral buffered formalin, and embedded in paraffin for histological assessment or shock-frozen in liquid N2 and stored at −80° C. for further analysis.
as §2

[6] = system: A2780-High tumour; test: Antitumour efficacy of ATRA in mouse xenografts; assay type: in vivo, NOD/SCID mice
Method: as §2, §3, §2

[7] = system: A2780-High cells; test: Tumourigenesis of ATRA-pretreated cells in mouse xenograft; assay type: in vivo, NOD/SCID mice
Method: Briefly, cells were implanted in 50% Matrigel (BD Biosciences, San Jose, Calif.) and injected subcutaneously into the left flanks of 4- to 6-week-old female NOD/SCID (NOD.CB17-PRKDC (SCID)) mice. We observed mice for tumour formation every other day after cell inoculation and measured tumour size when it became measurable. Tumour size was measured using Vernier callipers by external measurement of the length and width, and the tumour volume was computed from the formula for an ellipsoid body [volume=(length/2)×(width)]. When the tumours reached ˜2000 mm^3 at approximately 28 days, the mice were sacrificed. […] All tumours were excised, fixed in 10% neutral buffered formalin, and embedded in paraffin for histological assessment or shock-frozen in liquid N2 and stored at −80° C. for further analysis.

[8] = system: A2780 and CP70 ovarian cancer cells; test: Sphere formation assay; assay type: cell-based, human; conditions: A2780-High and CP70-High cells; 10 μM ATRA for 28 days
Method: FIGS. 1A-1F show ALDH1 regulates stemness and tumourigenic ability in ovarian cancer cells. […] A total of 1×10^3 A2780 (upper panel) and CP70 (lower panel) cells were seeded into a 96-well plate to evaluate the cells' sphere formation ability (scale bar=200 μm). DEAB was used to inhibit the reaction of ALDH1 and also served as a negative control. […] The β-actin was used as a protein loading control. The histogram represents the relative fold change of protein expression (right panel). […] A2780-ALDH1 (upper panel) and CP70-shALDH1 (lower panel) cells were seeded into 96-well plates to evaluate their sphere formation ability (scale bar=200 μm).
FIGS. 2A-2D show ALDH1 regulates stemness and tumourigenic ability through the FoxM1 and Notch1 signalling pathways. […] Representative images show spheres generated from single-cell cultures after 10 days. The lower panel depicts the relative sphere formation ratio (scale bar=200 μm). […] V: vector.
(§4) Standard sphere formation assays were performed according to Zhang et al. (Zhang, S. et al. Cancer Res., 68, 4311-4320.) with minor modification. The cells (1×10^3) were resuspended in serum-free DMEM/F12 medium supplemented with 5 μg/ml insulin (Sigma), 20 ng/ml human recombinant epidermal growth factor (EGF; Invitrogen, Life Technologies, Carlsbad, Calif.) and 10 ng/ml basic fibroblast growth factor (bFGF; Invitrogen) in ultra-low attachment plates (Corning Costar, Corning, N.Y.). Spheres that arose within 1-2 weeks were counted. Colony diameters >50 μm were counted as a single-positive colony. The middle field was chosen for counting of spheres, and two fields for each plate were counted under a dissecting microscope. For all sphere formation experiments, a minimum of eight wells was run for each condition. All data represent the mean ±SEM of three separate experiments and at least 24 different fields.
(§5) An Aldefluor® kit (StemCell Technologies) was used to assess ALDH activity in the ovarian cancer cell lines, as previously described (Saw, Y. T. et al. (2012) BMC Cancer, 12, 329.). In brief, 1×10^6 cells were incubated in Aldefluor® assay buffer containing a 1.5 μM ALDH substrate for 30 min at 37° C. Each sample was treated with 50 μM of DEAB, and used as a negative control. Prior to analysis, cells were stained with […] of propidium iodide to evaluate their viability. The fluorescence intensity of the stained cells was analysed using a FACSAria cell sorter Flow Cytometer (BD Biosciences). The reaction with DEAB was used to define the baseline for the assay. The ALDH activity of a sample was determined to be ‘high’ or ‘low’ based on the fluorescence intensity beyond or below the threshold defined by the reaction with DEAB. The cells having high or low ALDH activity are marked “-High” or “-Low” hereafter.

[9] = system: A2780-High and CP70-High cells; test: Transwell invasion assay; assay type: cell-based, human; conditions: 10 μM ATRA for 28 days
Method: as §1

[10] = system: ALDH1; test: Aldefluor assay of ALDH1 enzyme activity / ALDH1-High cell fraction; assay type: cell-based, human
Method: as §5

[11] = system: ES2 cells (ES2-High, ES2-Low); test: Sphere formation assay; assay type: cell-based, human; conditions: ES2-High cells; ATRA (10 μM)
Method: (§6) Right panel: relative fold changes of ALDH1 and FoxM1 expression compared with controls. […] Sphere formation in ES2-High cells after treatment with different concentrations of Thiostrepton or DAPT, and the relative fold changes in expression are shown (scale bar=200 μm).
as §4, §5

[12] = system: ES2-High cells; test: Transwell migration assay; assay type: cell-based, human; conditions: ATRA
Method: as §6, §1

[13] = system: ES2-High cells; test: MTT cytotoxicity assay (proliferation, doubling time); assay type: cell-based, human; conditions: ATRA
Method: as §6
(§7) The cell lines were cultured in a humidified incubator containing 95% air and 5% CO2 at 37° C. in 96-well flat-bottomed microtiter plates. After 72 h of incubation, the in vitro cytotoxic effects of treatments were determined by MTT assay (at 570 nm).

[14] = system: CP70-High cells; test: Tumourigenesis of ATRA-pretreated cells in mouse xenograft; assay type: in vivo, NOD/SCID mice
Method: as §3
We then inoculated 1×10^4 ATRA-pretreated A2780-High or CP70-High cells into mice. […] However, these findings were not observed in ES2-Low cells (FIG. 4A and FIG. 4B).

[15] = system: A2780 and CP70 ovarian cancer cells; test: MTT cytotoxicity assay (proliferation, doubling time); assay type: cell-based, human; conditions: A2780-High and CP70-High cells; ATRA treatment
Method: as §7

[16] = 1×10^4 cells pretreated with ATRA (10 μM) for 28 days, inoculated into mice
[17] = CP70-High cells pretreated with ATRA, 1 × 10^4 cells injected

CC1=C(/C=C/C(C)=C/C=C/C(C)=C/C(=O)O)C(C)(C)CCC1 [ATRA, all-trans retinoic acid]
cell migration ability [1]: significantly reduced
ALDH1 expression [2]: inhibited
FoxM1 expression [2]: inhibited
Notch1 expression [2]: inhibited
ALDH1 expression [3]: significantly reduced
FoxM1 expression [3]: significantly reduced
Notch1 expression [3]: significantly reduced
ALDH1 expression in tumour cells from tissue sections ([4]; ATRA-treated mice compared with control mice): downregulated
ALDH1 expression in tumour cells (immunostaining) ([4]; tumours from ATRA-pretreated ALDH1-High cells): reduced ALDH1 expression
tumour growth [5]: significantly suppressed
tumour growth ([6]; 1×10^6 cells s.c., ATRA 0.05 or 0.1 mg into the peritoneal cavity three times per week): inhibited A2780-High tumour growth in a dose-dependent manner
effective dose for mice ([6]; mouse xenografts, administered doses 0.05 and 0.1 mg): at least 0.05 mg
tumour formation ability [7, 16]: almost completely abrogated
Number of tumours/number of injections ([7]; A2780-High cells pretreated with ATRA, 1 × 10^4 cells injected): 4/9
sphere formation ability [8]: significantly reduced
cell invasion ability [9]: significantly reduced
ALDH1 activity ([10]; A2780-High and CP70-High cells, 10 μM ATRA for 28 days): significantly reduced
proportion of ALDH1-High cells ([10]; A2780-Low and CP70-Low cells, ATRA (10 μM) or paclitaxel (60 ng/ml) for 4 days): decreased the proportion of ALDH1-High ovarian cancer cells
sphere formation ability [11]: inhibited
cell migration ability [12]: inhibited
proliferation (cell doubling time) [13]: did not affect proliferation
tumour size [14, 16]: significant reduction of tumour size
Number of tumours/number of injections [14, 17]: 4/5
average tumour volume [14, 17]: (545) mm^3
Tumour-initiating cell frequency ([14]; CP70-High cells pretreated with ATRA, calculated with ELDA software): 1/6213
proliferation (cell doubling time) [15]: did not affect proliferation
